Values quoted from earlier work as cited in patent US20140271816A1, “TREATMENT OF POTENTIAL PLATELET AGGREGATION WITH LIPOSOMALLY FORMULATED GLUTATHIONE AND CLOPIDOGREL” (priority 2013, published 2014).
Where two headings read alike, the source gives them in different places.

Tests used:
[1] = rat; for toxin remaining: Co-60 in liver
[2] = humans, plain non-formulated glutathione
[3] = oral, 75 mg clopidogrel (base)

In the case of CC(=O)N[C@@H](CS)C(=O)O [NAC, N-Acetyl cysteine], the “activity in forming the AM relative to GSH” value (percent of the activity of GSH) is listed as “less than 10%”.
For N[C@@H](CCC(=O)N[C@@H](CS)C(=O)NCC(=O)O)C(=O)O [Plain glutathione, reduced glutathione], the toxin remaining ([1]; intravenous administration) is listed as 36%, the toxin remaining ([1]; oral administration) is listed as 100% and the “removal of toxin / radiotagged marker (Co-60) from the liver” value (“removal of toxin / radiotagged marker” for short) ([1]; intravenous administration) is listed as 64%. The “removal of toxin / radiotagged marker” value ([1]; oral administration) was 0%, the “removal of toxin / radiotagged marker” value ([1]; oral administration, listed as plain GSH) was “no function” and the “rank as reducing agent needed to form the active metabolites of clopidogrel” value (ex vivo studies) was “best reducing agent”. For the same compound, the “absorption after oral administration” value ([2]; listed as glutathione) was “not absorbed well”, the “absorption after oral administration” value ([2]; listed as plain GSH) was “not absorbed” and the “absorption after oral administration” value ([2]; listed as plain glutathione) was “not absorbed”.
In the case of COC(=O)[C@H](c1ccccc1Cl)N1CCc2sccc2C1 [Clopidogrel, clopidogrel], the “peak plasma levels of the main circulating metabolite” value [3] is listed as “approx. 3 mg/L” and the “time of peak plasma levels after dosing” value ([3]; main circulating metabolite) is listed as “approximately one”.
